Results from paper PMC6225228, “Design, Synthesis and Evaluation of N-pyrazinylbenzamides as Potential Antimycobacterial Agents” (Molecules : A Journal of Synthetic Chemistry and Natural …, 2018).
≈ marks a conversion by molar mass, not a printed value. Where “and” joins values, the source holds several entries; their conditions need not be identical. Equal values may be shown once. Read-outs that look alike come from different tables or passages of the source.

Tests used:
Type in all cases: cell-based
[1] = test system: Mycobacterium smegmatis CCM 4622 (ATCC 607); assay: Antimycobacterial microdilution, M. smegmatis; settings: Middlebrook 7H9 with OADC, resazurin; for MIC: Mycolicibacterium smegmatis, read-out: M. smeg. ATCC 607 MIC
[2] = test system: Candida tropicalis 156; assay: Antifungal microdilution broth, CT; settings: read-out: MIC CT
[3] = test system: Lichtheimia corymbifera 272; assay: Antifungal microdilution broth, LC; settings: read-out: MIC LC
[4] = test system: Aspergillus fumigatus 231; assay: Antifungal microdilution broth, AF; settings: read-out: MIC AF
[5] = test system: Candida albicans ATCC 44859; assay: Antifungal microdilution broth, CA; settings: Candida albicans, read-out: MIC CA
[6] = test system: Trichophyton interdigitale 445; assay: Antifungal microdilution broth, TI; settings: read-out: MIC TI
[7] = test system: Candida glabrata 20/I; assay: Antifungal microdilution broth, CG; settings: Nakaseomyces glabratus, 20/I, read-out: MIC CG
[8] = test system: Candida krusei E28; assay: Antifungal microdilution broth, CK; settings: Pichia kudriavzevii, read-out: MIC CK
[9] = test system: Trichosporon asahii 1188; assay: Antifungal microdilution broth, TA; settings: read-out: MIC TA
[10] = test system: Escherichia coli CCM 4517; assay: Antibacterial microdilution broth, EC; settings: read-out: MIC EC
[11] = test system: Staphylococcus epidermidis H 6966/08; assay: Antibacterial microdilution broth, SE; settings: read-out: MIC SE
[12] = test system: Enterococcus sp. J 14365/08; assay: Antibacterial microdilution broth, EF; settings: read-out: MIC EF
[13] = test system: Staphylococcus aureus CCM 4516/08; assay: Antibacterial microdilution broth, SA; settings: read-out: MIC SA
[14] = test system: Staphylococcus aureus H 5996/08 methicillin resistant; assay: microbe, parasite or virus in culture; settings: for MIC: Staphylococcus aureus, MRSA, read-out: MIC MRSA
[15] = test system: Pseudomonas aeruginosa CCM 1961; assay: Antibacterial microdilution broth, PA; settings: read-out: MIC PA
[16] = Lichtheimia corymbifera, 272, 24 h
[17] = Lichtheimia corymbifera, 272, 48 h
[18] = Aspergillus fumigatus, 231, 24 h
[19] = Aspergillus fumigatus, 231, 48 h
[20] = Trichophyton interdigitale, 445, 72 h
[21] = Trichophyton interdigitale, 445, 120 h
[22] = Trichosporon asahii, 1188, 24 h
[23] = Trichosporon asahii, 1188, 48 h

| SMILES | MIC [1] | MIC ([2]; Candida tropicalis, 156, 24 h) | MIC ([2]; Candida tropicalis, 156, 48 h) | MIC [3, 16] | MIC [3, 17] | MIC [4, 18] | MIC [4, 19] | MIC ([5]; ATCC44859, 24 h) | MIC ([5]; ATCC44859, 48 h) | MIC [6, 20] | MIC [6, 21] | MIC ([7]; 24 h) | MIC ([7]; 48 h) | MIC ([8]; E28, 24 h) | MIC ([8]; E28, 48 h) | MIC [9, 22] | MIC [9, 23] | further results |
| --- | --- | --- | --- | --- | --- | --- | --- | --- | --- | --- | --- | --- | --- | --- | --- | --- | --- | --- |
| O=C(O)c1cn(C2CC2)c2cc(N3CCNCC3)c(F)cc2c1=O [CPX, ciprofloxacin, reference compound] | 0.195 µg/mL (≈ 0.589 µM) | – | – | – | – | – | – | – | – | – | – | – | – | – | – | – | – | – |
| C[C@@H](c1ncncc1F)[C@](O)(Cn1cncn1)c1ccc(F)cc1F [VOR, voriconazole, reference compound] | – | 62.5 µM (≈ 21.8 µg/mL) | 250 µM (≈ 87.3 µg/mL) | 125 µM (≈ 43.7 µg/mL) | 250 µM (≈ 87.3 µg/mL) | 0.49 µM (≈ 0.171 µg/mL) | 1.95 µM (≈ 0.681 µg/mL) | 0.002 µM (≈ 0.000699 µg/mL) | 0.008 µM (≈ 0.00279 µg/mL) | 0.061 µM (≈ 0.0213 µg/mL) | 0.12 µM (≈ 0.0419 µg/mL) | 0.24 µM (≈ 0.0838 µg/mL) | 250 µM (≈ 87.3 µg/mL) | 0.49 µM (≈ 0.171 µg/mL) | 1.95 µM (≈ 0.681 µg/mL) | 0.98 µM (≈ 0.342 µg/mL) | 7.81 µM (≈ 2.73 µg/mL) | – |
| NC[C@@H]1O[C@H](O[C@H]2[C@@H](O)[C@H](O[C@@H]3[C@@H](O)[C@H](N)C[C@H](N)[C@H]3O[C@H]3O[C@H](CN)[C@@H](O)[C@H](O)[C@H]3N)O[C@@H]2CO)[C@H](N)[C@@H](O)[C@@H]1O [Neom, neomycin, reference compound] | – | – | – | – | – | – | – | – | – | – | – | – | – | – | – | – | – | MIC ([10]; 24 h): 0.98 µM (≈ 0.602 µg/mL); MIC ([10]; 48 h): 0.98 µM (≈ 0.602 µg/mL); MIC ([11]; 24 h): 3.9 µM and 3.90 µM; MIC ([11]; 48 h): 7.81 µM (≈ 4.8 µg/mL); MIC ([12]; 24 h): 250 µM (≈ 154 µg/mL); MIC ([12]; 48 h): 250 µM (≈ 154 µg/mL); MIC ([13]; 24 h): 3.9 µM and 3.90 µM; MIC ([13]; 48 h): 3.9 µM and 3.90 µM; MIC MRSA ([14]; 24 h): 0.98 µM (≈ 0.602 µg/mL); MIC MRSA ([14]; 48 h): 0.98 µM (≈ 0.602 µg/mL); MIC ([15]; 72 h): 7.81 µM (≈ 4.8 µg/mL); MIC ([15]; 120 h): 15.62 µM (≈ 9.6 µg/mL) |
| CO[C@H]1/C=C/O[C@@]2(C)Oc3c(C)c(O)c4c(O)c(c(/C=N/N5CCN(C)CC5)c(O)c4c3C2=O)NC(=O)/C(C)=C\C=C\[C@H](C)[C@H](O)[C@@H](C)[C@@H](O)[C@@H](C)[C@H](OC(C)=O)[C@@H]1C [RFM, rifampicin, reference compound] | 0.78 to 1.56 µg/mL (≈ 0.948 to 1.9 µM) | – | – | – | – | – | – | – | – | – | – | – | – | – | – | – | – | M. smeg. ATCC 607 MIC [1]: 1.56 µg/mL |
| C[C@@H]1[C@H](O)[C@@H](C)/C=C/C=C/C=C/C=C/C=C/C=C/C=C/[C@H](O[C@@H]2O[C@H](C)[C@@H](O)[C@H](N)[C@@H]2O)C[C@@H]2O[C@](O)(C[C@@H](O)C[C@@H](O)[C@H](O)CC[C@@H](O)C[C@@H](O)CC(=O)O[C@H]1C)C[C@H](O)[C@H]2C(=O)O [AMPB, amphotericin B, reference compound] | – | 1.95 µM (≈ 1.8 µg/mL) | 1.95 µM (≈ 1.8 µg/mL) | 7.81 µM (≈ 7.22 µg/mL) | 7.81 µM (≈ 7.22 µg/mL) | 1.95 µM (≈ 1.8 µg/mL) | 1.95 µM (≈ 1.8 µg/mL) | 0.12 µM (≈ 0.111 µg/mL) | 0.49 µM (≈ 0.453 µg/mL) | 1.95 µM (≈ 1.8 µg/mL) | 1.95 µM (≈ 1.8 µg/mL) | 0.98 µM (≈ 0.906 µg/mL) | 1.95 µM (≈ 1.8 µg/mL) | 1.95 µM (≈ 1.8 µg/mL) | 1.95 µM (≈ 1.8 µg/mL) | 0.49 µM (≈ 0.453 µg/mL) | 0.98 µM (≈ 0.906 µg/mL) | – |
| CC1(C)S[C@@H]2[C@H](NC(=O)Cc3ccccc3)C(=O)N2[C@H]1C(=O)O [Pen, benzylpenicillin, reference compound] | – | – | – | – | – | – | – | – | – | – | – | – | – | – | – | – | – | MIC ([10]; Escherichia coli, CCM4517, 24 h): 125 µM (≈ 41.8 µg/mL); MIC ([10]; Escherichia coli, CCM4517, 48 h): 125 µM (≈ 41.8 µg/mL); MIC ([11]; Staphylococcus epidermidis, H6966/08, 24 h): 31.2 µM (≈ 10.4 µg/mL); MIC ([11]; Staphylococcus epidermidis, H6966/08, 48 h): 125 µM (≈ 41.8 µg/mL); MIC ([12]; Enterococcus, SP.J14365/08, 24 h): 7.81 µM (≈ 2.61 µg/mL); MIC ([12]; Enterococcus, SP.J14365/08, 48 h): 15.6 µM (≈ 5.22 µg/mL); MIC ([13]; Staphylococcus aureus, CCM4516, 24 h): 0.24 µM (≈ 0.0803 µg/mL); MIC ([13]; Staphylococcus aureus, CCM4516, 48 h): 0.24 µM (≈ 0.0803 µg/mL); MIC ([14]; 24 h): 125 µM (≈ 41.8 µg/mL); MIC ([14]; 48 h): 125 µM (≈ 41.8 µg/mL); MIC ([15]; Pseudomonas aeruginosa, CCM1961, 72 h): > 500 µM; MIC ([15]; Pseudomonas aeruginosa, CCM1961, 120 h): > 500 µM |
